In ChEMBL document CHEMBL6103552, “Identification of peptide-based hepatitis B virus capsid inhibitors based on the viral core protein” (Bioorg Med Chem Lett, 2025):
Calls of active or inactive are those of the source. Residues, ends and D or L forms follow the SMILES beside them.

Key:
Type in all cases: subcellular
Core antigen = Core antigen (Hepatitis B virus, UniProt Q03732); assay: Inhibition of Hepatitis B virus capsid formation treated during cell-free wild type HBV Cp synthesis using wheat germ lysates and HBV Cp RNA by Denatured capsid assay based western blot analysis
Sequence of Core antigen (Q03732 whole entry): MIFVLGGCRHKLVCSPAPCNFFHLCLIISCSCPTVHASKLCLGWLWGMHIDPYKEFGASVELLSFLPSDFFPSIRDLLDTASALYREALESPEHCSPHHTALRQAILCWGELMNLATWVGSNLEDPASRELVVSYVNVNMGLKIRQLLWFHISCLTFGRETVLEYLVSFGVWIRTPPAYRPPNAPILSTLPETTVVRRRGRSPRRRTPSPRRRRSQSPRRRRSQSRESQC

[1] = target: Core antigen (Hepatitis B virus) (UniProt Q03732); assay: Inhibition of Hepatitis B virus capsid formation at 100 uM treated during cell-free HBV Cp T33N mutant synthesis using wheat germ lysates and HBV Cp RNA by Denatured capsid assay based western blot analysis
Sequence of Core antigen (Hepatitis B virus) (Q03732 as listed by the source): as the sequence (Q03732 whole entry) above

[2] = target: Core antigen (Hepatitis B virus) (UniProt Q03732); assay: Inhibition of Hepatitis B virus capsid formation at 100 uM treated during cell-free wild type HBV Cp synthesis using wheat germ lysates and HBV Cp RNA by Native capsid assay based western blot analysis
[3] = target: Core antigen (Hepatitis B virus) (UniProt Q03732); assay: Inhibition of Hepatitis B virus capsid formation at 10 uM treated during cell-free HBV Cp T33N mutant synthesis using wheat germ lysates and HBV Cp RNA by Denatured capsid assay based western blot analysis
[4] = target: Core antigen (Hepatitis B virus) (UniProt Q03732); assay: Inhibition of Hepatitis B virus capsid formation at 3 uM treated during cell-free wild type HBV Cp synthesis using wheat germ lysates and HBV Cp RNA by Native capsid assay based western blot analysis

SMILES | inhibition [2] | also measured
CC[C@H](C)[C@H](NC(=O)[C@H](Cc1c[nH]cn1)NC(=O)[C@H](Cc1ccccc1)NC(=O)[C@H](Cc1c[nH]c2ccccc12)NC(=O)[C@H](CC(C)C)NC(=O)[C@H](CC(C)C)NC(=O)[C@H](CCC(N)=O)NC(=O)[C@H](CCCNC(=N)N)NC(=O)[C@H](Cc1ccccc1)NC(=O)[C@H](CCCCN)NC(=O)[C@H](CC(C)C)NC(=O)CNC(=O)[C@H](CCSC)NC(=O)[C@H](CC(N)=O)NC(=O)[C@@H](NC(C)=O)C(C)C)C(N)=O | Active; Significantly Inhibited Hbv-Capsid Formation Of 72 Peptides Tested | IC50 (Core antigen): 97.8 µM; inhibition [1]: Active; Comparable Activity To Gls4, Positive Control; inhibition [3]: Active; Same Efficacy As Gls4 Observed
CCOC(=O)C1=C(CN2CCOCC2)NC(c2nccs2)=NC1c1ccc(F)cc1Br (centres undefined) | – | inhibition [4]: Active
CC[C@H](C)[C@H](NC(=O)[C@H](Cc1c[nH]cn1)NC(=O)[C@H](Cc1ccccc1)NC(=O)[C@H](Cc1c[nH]c2ccccc12)NC(=O)[C@H](CC(C)C)NC(=O)[C@H](CC(C)C)NC(=O)[C@H](CCC(N)=O)NC(=O)[C@H](CCCNC(=N)N)NC(=O)[C@H](Cc1ccccc1)NC(=O)[C@H](CCCCN)NC(C)=O)C(=O)N[C@@H](CO)C(=O)N[C@@H](CS)C(=O)N[C@@H](CC(C)C)C(=O)N[C@H](C(=O)N[C@@H](Cc1ccccc1)C(N)=O)[C@@H](C)O (Ac-KFRQLLWFHISCLTF-NH2) | Active; Significantly Inhibited Hbv-Capsid Formation Of 72 Peptides Tested | IC50 (Core antigen): 43.7 µM; inhibition [1]: Active; Comparable Activity To Gls4, Positive Control; inhibition [3]: Active; Greater Efficacy Compared To Gls4 Observed
CC[C@H](C)[C@H](NC(=O)[C@H](C)NC(=O)[C@H](CCC(N)=O)NC(=O)[C@@H]1CCCN1C(=O)[C@H](CC(C)C)NC(=O)[C@H](C)NC(=O)[C@@H](NC(=O)[C@H](Cc1c[nH]cn1)NC(=O)[C@@H](N)Cc1c[nH]cn1)[C@@H](C)O)C(=O)N[C@@H](CC(C)C)C(=O)N[C@@H](CS)C(=O)N[C@@H](Cc1c[nH]c2ccccc12)C(=O)NCC(=O)N[C@@H](CCC(=O)O)C(=O)N[C@@H](CC(C)C)C(N)=O (H-HHTALPQAILCWGEL-NH2) | inactive | –
CC[C@H](C)[C@H](N)C(=O)N[C@@H](CCCNC(=N)N)C(=O)N[C@H](C(=O)N1CCC[C@H]1C(=O)N1CCC[C@H]1C(=O)N[C@@H](C)C(=O)N[C@@H](Cc1ccc(O)cc1)C(=O)N[C@@H](CCCNC(=N)N)C(=O)N1CCC[C@H]1C(=O)N1CCC[C@H]1C(=O)N[C@@H](CC(N)=O)C(=O)N[C@@H](C)C(=O)N1CCC[C@H]1C(=O)N[C@H](C(=O)N[C@@H](CC(C)C)C(N)=O)[C@@H](C)CC)[C@@H](C)O (H-IRTPPAYRPPNAPIL-NH2) | inactive | –
CC[C@H](C)[C@H](NC(=O)[C@H](Cc1c[nH]cn1)NC(=O)[C@H](Cc1ccccc1)NC(=O)[C@H](Cc1c[nH]c2ccccc12)NC(=O)[C@H](CC(C)C)NC(=O)[C@H](CC(C)C)NC(=O)[C@H](CCC(N)=O)NC(=O)[C@H](CCCNC(=N)N)NC(=O)[C@H](Cc1ccccc1)NC(=O)[C@@H](N)CCCCN)C(=O)N[C@@H](CO)C(=O)N[C@@H](CS)C(=O)N[C@@H](CC(C)C)C(=O)N[C@H](C(=O)N[C@@H](Cc1ccccc1)C(N)=O)[C@@H](C)O (H-KFRQLLWFHISCLTF-NH2) | inactive | –
CC(C)C[C@H](NC(=O)[C@H](C)NC(=O)[C@H](CO)NC(=O)[C@H](C)NC(=O)[C@@H](NC(=O)[C@H](CC(=O)O)NC(=O)[C@@H](N)CC(C)C)[C@@H](C)O)C(=O)N[C@@H](Cc1ccc(O)cc1)C(=O)N[C@@H](CCCNC(=N)N)C(=O)N[C@@H](CCC(=O)O)C(=O)N[C@@H](C)C(=O)N[C@@H](CC(C)C)C(=O)N[C@@H](CCC(=O)O)C(=O)N[C@@H](CO)C(=O)N1CCC[C@H]1C(N)=O (H-LDTASALYREALESP-NH2) | inactive | –
CC[C@H](C)[C@H](NC(=O)[C@H](Cc1c[nH]c2ccccc12)NC(=O)[C@@H](NC(=O)CNC(=O)[C@H](Cc1ccccc1)NC(=O)[C@H](CO)NC(=O)[C@@H](NC(=O)[C@H](CC(C)C)NC(=O)[C@H](Cc1ccc(O)cc1)NC(=O)[C@H](CCC(=O)O)NC(=O)[C@@H](N)CC(C)C)C(C)C)C(C)C)C(=O)N[C@@H](CCCNC(=N)N)C(=O)N[C@H](C(=O)N1CCC[C@H]1C(=O)N1CCC[C@H]1C(N)=O)[C@@H](C)O (H-LEYLVSFGVWIRTPP-NH2) | inactive | –
CC[C@H](C)[C@H](NC(=O)[C@H](Cc1c[nH]cn1)NC(=O)[C@H](Cc1ccccc1)NC(=O)[C@H](Cc1c[nH]c2ccccc12)NC(=O)[C@@H](N)CC(C)C)C(=O)N[C@@H](CO)C(=O)N[C@@H](CS)C(=O)N[C@@H](CC(C)C)C(=O)N[C@H](C(=O)N[C@@H](Cc1ccccc1)C(=O)NCC(=O)N[C@@H](CCCNC(=N)N)C(=O)N[C@@H](CCC(=O)O)C(=O)N[C@H](C(=O)N[C@H](C(N)=O)C(C)C)[C@@H](C)O)[C@@H](C)O (H-LWFHISCLTFGRETV-NH2) | inactive | –
N=C(N)NCCC[C@H](NC(=O)[C@@H]1CCCN1)C(=O)N[C@@H](CCCNC(=N)N)C(=O)N[C@@H](CCCNC(=N)N)C(=O)N[C@@H](CCCNC(=N)N)C(=O)N[C@@H](CO)C(=O)N[C@@H](CCC(N)=O)C(=O)N[C@@H](CO)C(=O)N[C@@H](CCCNC(=N)N)C(=O)N[C@@H](CCC(=O)O)C(=O)N[C@@H](CO)C(=O)N[C@@H](CCC(N)=O)C(=O)N[C@@H](CS)C(N)=O (H-PRRRRSQSRESQC-NH2) | inactive | –
C[C@@H](O)[C@H](NC(=O)[C@H](CCCNC(=N)N)NC(=O)[C@H](CCCNC(=N)N)NC(=O)[C@H](CCCNC(=N)N)NC(=O)[C@@H]1CCCN1)C(=O)N1CCC[C@H]1C(=O)N[C@@H](CO)C(=O)N1CCC[C@H]1C(=O)N[C@@H](CCCNC(=N)N)C(=O)N[C@@H](CCCNC(=N)N)C(=O)N[C@@H](CCCNC(=N)N)C(=O)N[C@@H](CCCNC(=N)N)C(=O)N[C@@H](CO)C(=O)N[C@@H](CCC(N)=O)C(=O)N[C@@H](CO)C(N)=O (H-PRRRTPSPRRRRSQS-NH2) | inactive | –
N=C(N)NCCC[C@H](NC(=O)[C@H](CCCNC(=N)N)NC(=O)[C@H](CCCNC(=N)N)NC(=O)[C@H](CCCNC(=N)N)NC(=O)[C@@H]1CCCN1C(=O)[C@H](CO)NC(=O)[C@H](CCC(N)=O)NC(=O)[C@H](CO)NC(=O)[C@H](CCCNC(=N)N)NC(=O)[C@H](CCCNC(=N)N)NC(=O)[C@H](CCCNC(=N)N)NC(=O)[C@H](CCCNC(=N)N)NC(=O)[C@@H]1CCCN1C(=O)[C@H](CO)NC(=O)[C@@H]1CCCN1)C(N)=O (H-PSPRRRRSQSPRRRR-NH2) | inactive | –
N=C(N)NCCC[C@H](NC(=O)[C@H](CO)NC(=O)[C@H](CCC(N)=O)NC(=O)[C@H](CO)NC(=O)[C@H](CCCNC(=N)N)NC(=O)[C@H](CCCNC(=N)N)NC(=O)[C@H](CCCNC(=N)N)NC(=O)[C@H](CCCNC(=N)N)NC(=O)[C@@H]1CCCN1C(=O)[C@H](CO)NC(=O)[C@@H](N)CCC(N)=O)C(=O)N[C@@H](CCC(=O)O)C(=O)N[C@@H](CO)C(=O)N[C@@H](CCC(N)=O)C(=O)N[C@@H](CS)C(N)=O (H-QSPRRRRSQSRESQC-NH2) | inactive | –
C[C@@H](O)[C@H](NC(=O)[C@H](CCCNC(=N)N)NC(=O)[C@H](CCCNC(=N)N)NC(=O)[C@H](CCCNC(=N)N)NC(=O)[C@@H]1CCCN1C(=O)[C@H](CO)NC(=O)[C@H](CCCNC(=N)N)NC(=O)CNC(=O)[C@H](CCCNC(=N)N)NC(=O)[C@@H](N)CCCNC(=N)N)C(=O)N1CCC[C@H]1C(=O)N[C@@H](CO)C(=O)N1CCC[C@H]1C(=O)N[C@@H](CCCNC(=N)N)C(=O)N[C@@H](CCCNC(=N)N)C(N)=O (H-RRGRSPRRRTPSPRR-NH2) | inactive | –
N=C(N)NCCC[C@H](NC(=O)[C@H](CO)NC(=O)[C@H](CCC(N)=O)NC(=O)[C@H](CO)NC(=O)[C@H](CCCNC(=N)N)NC(=O)[C@H](CCCNC(=N)N)NC(=O)[C@H](CCCNC(=N)N)NC(=O)[C@H](CCCNC(=N)N)NC(=O)[C@@H]1CCCN1C(=O)[C@H](CO)NC(=O)[C@H](CCC(N)=O)NC(=O)[C@H](CO)NC(=O)[C@H](CCCNC(=N)N)NC(=O)[C@@H](N)CCCNC(=N)N)C(=O)N[C@@H](CCC(=O)O)C(N)=O (H-RRSQSPRRRRSQSRE-NH2) | inactive | –
CC(C)C[C@H](NC(=O)[C@H](Cc1ccc(O)cc1)NC(=O)[C@H](CCC(=O)O)NC(=O)[C@H](CC(C)C)NC(=O)[C@@H](NC(=O)[C@@H](NC(=O)[C@H](CCC(=O)O)NC(=O)[C@H](CCCNC(=N)N)NC(=O)CNC(=O)[C@H](Cc1ccccc1)NC(=O)[C@@H](NC(=O)[C@H](CC(C)C)NC(=O)[C@H](CS)NC(=O)[C@@H](N)CO)[C@@H](C)O)[C@@H](C)O)C(C)C)C(=O)N[C@H](C(N)=O)C(C)C (H-SCLTFGRETVLEYLV-NH2) | inactive | –
CC(C)[C@H](NC(=O)[C@@H](NC(=O)[C@@H](NC(=O)[C@@H](N)[C@@H](C)O)[C@@H](C)O)C(C)C)C(=O)N[C@@H](CCCNC(=N)N)C(=O)N[C@@H](CCCNC(=N)N)C(=O)N[C@@H](CCCNC(=N)N)C(=O)NCC(=O)N[C@@H](CCCNC(=N)N)C(=O)N[C@@H](CO)C(=O)N1CCC[C@H]1C(=O)N[C@@H](CCCNC(=N)N)C(=O)N[C@@H](CCCNC(=N)N)C(=O)N[C@@H](CCCNC(=N)N)C(=O)N[C@H](C(N)=O)[C@@H](C)O (H-TTVVRRRGRSPRRRT-NH2) | inactive | –
CSCC[C@H](NC(=O)[C@H](CC(N)=O)NC(=O)[C@@H](NC(=O)[C@H](CC(N)=O)NC(=O)[C@@H](NC(=O)[C@H](Cc1ccc(O)cc1)NC(=O)[C@H](CO)NC(=O)[C@@H](N)C(C)C)C(C)C)C(C)C)C(=O)NCC(=O)N[C@@H](CC(C)C)C(=O)N[C@@H](CCCCN)C(=O)N[C@@H](Cc1ccccc1)C(=O)N[C@@H](CCCNC(=N)N)C(=O)N[C@@H](CCC(N)=O)C(=O)N[C@@H](CC(C)C)C(N)=O (H-VSYVNVNMGLKFRQL-NH2) | inactive | –
